According to US20240365781A1, “SYNERGISTICALLY EFFECTIVE HERBICIDE COMPOSITION COMPRISING PELARGONIC ACID AND FLAZASULFURON” (Belchim Crop Protection NV, priority 2017, published 2024):

Legend:
Format in all cases: in vivo
[1] = test system: Anagallis arvensis; experiment: post-emergence test, field trial (Examples 1-5); settings: 3 d, FT; pelargonic acid 5440 g/ha, flazasulfuron 50 g/ha; 8 L/ha
Description: (§1) The expected activity of a given combination of two or three herbicides can be calculated as follows according to a calculation method by Colby (cf. COLBY, S. R.: “Calculating synergistic and antagonistic responses of herbicide combinations”, • Weeds 15, pages 20-22, 1967): • If X=% damage by herbicide (A) at an application rate of m g/ha, • Y=% damage by herbicide (B) at an application rate of n g/ha, • E=the expected damage by herbicides (A) and (B) at application rates of m and n […] and, • then for a combination:
(§2) Individual compositions comprising pelargonic acid or flazasulfuron are compared with a herbicide composition according to the invention comprising pelargonic acid and flazasulfuron.
(§3) Herbicidal activity was determined by performing a post-emergence test. […] The corresponding mixture was in the form of a spray liquor. Besides, spray liquors of individual compositions comprising pelargonic acid or flazasulfuron were used.
(§4) Tests were performed on test fields (field trials) or in pots (pot trials).

[2] = test system: Digitaria sang; experiment: post-emergence test, field trial (Examples 1-5); settings: FT, pelargonic acid 5440 g/ha, flazasulfuron 50 g/ha, 8 L/ha
Description: as §1, §2, §3, §4

[3] = test system: Lolium sp.; experiment: post-emergence test, field trial (Examples 1-5); settings: 7 d, FT; pelargonic acid 5440 g/ha, flazasulfuron 50 g/ha; 8 L/ha
Description: as §1, §2, §3, §4

[4] = test system: Sonchus oleraceus L.; experiment: post-emergence test, field trial (Examples 1-5); settings: FT, pelargonic acid 5440 g/ha, flazasulfuron 50 g/ha, 8 L/ha
Description: as §1, §2, §3, §4

[5] = test system: Veronica persica; experiment: post-emergence test, field trial (Examples 1-5); settings: FT, pelargonic acid 5440 g/ha, flazasulfuron 50 g/ha, 8 L/ha
Description: as §1, §2, §3, §4

[6] = test system: Geranium dissectum; experiment: post-emergence test, pot trial (Examples 1-5); settings: 28 d, PT, pelargonic acid 10880 g/ha, 16 L/ha
Description: as §1, §2, §3, §4

[7] = test system: Matricaria chamomilla; experiment: post-emergence test, pot trial (Examples 1-5); settings: bigger plants, 28 d, PT, pelargonic acid 10880 g/ha, 16 L/ha
Description: as §1, §2, §3, §4

[8] = test system: Poa annua; experiment: post-emergence test, pot trial (Examples 1-5); settings: 28 d, PT; pelargonic acid 10880 g/ha, flazasulfuron 50 g/ha; 16 L/ha
Description: as §1, §2, §3, §4

[9] = test system: Setaria pumila; experiment: post-emergence test, pot trial (Examples 1-5); settings: young plants, 28 d, PT, pelargonic acid 10880 g/ha, 16 L/ha
Description: as §1, §2, §3, §4

[10] = test system: Trifolium repens; experiment: post-emergence test, pot trial (Examples 1-5); settings: 28 d, PT; pelargonic acid 10880 g/ha, flazasulfuron 50 g/ha; 16 L/ha
Description: as §1, §2, §3, §4

[11] = test system: Chenopodium album; experiment: post-emergence field trial under rows of apple trees, 150-200 L water/ha (Examples 10-12); settings: 20 g of active compound/ha
Procedure: (§5) Herbicidal activity was determined by performing a post-emergence test. […] The corresponding mixture was in the form of a spray solution. Besides, spray solutions of individual compositions comprising pelargonic acid or flazasulfuron were used.
(§6) The spray solution was applied on plants of unwanted vegetation present on fields where perennial crops were grown.
(§7) After 5 to 88 days after application of the spray solution, the degree of damage to the unwanted vegetation is rated in % of plants of unwanted vegetation that were killed. Tests were performed on test fields (field trials).

[12] = test system: Lolium multiflorum; experiment: as above; settings: 20 g of active compound/ha
Procedure: as §5, §6, §7

[13] = test system: Poa annua; experiment: as above; settings: 20 g of active compound/ha
Procedure: as §5, §6, §7

[14] = test system: Setaria viridis; experiment: as above; settings: 20 g of active compound/ha
Procedure: as §5, §6, §7

[15] = test system: Stellaria media; experiment: as above; settings: 20 g of active compound/ha
Procedure: as §5, §6, §7

[16] = test system: Trifolium repens; experiment: as above; settings: 20 g of active compound/ha
Procedure: as §5, §6, §7

[17] = test system: Veronica persicae; experiment: as above; settings: 20 g of active compound/ha
Procedure: as §5, §6, §7

Compound: COc1cc(OC)nc(NC(=O)NS(=O)(=O)c2ncccc2C(F)(F)F)n1 [Flazasulfuron, 1-(4,6-dimethoxypyrimidin-2-yl)-3-(3-trifluoromethyl-2-pyridylsulfonyl)urea]
- herbicidal effect [1]: 1.3%
- herbicidal effect ([2]; 3 d): 2.5%
- herbicidal effect ([2]; 7 d): 13.3%
- herbicidal effect ([2]; 12 d): 37.3%
- herbicidal effect ([2]; 72 d): 3.8%
- herbicidal effect [3]: 2.5%
- herbicidal effect ([4]; 3 d): 0%
- herbicidal effect ([4]; 7 d): 0%
- herbicidal effect ([4]; 13 d): 2.5%
- herbicidal effect ([4]; 28 d): 12.5%
- herbicidal effect ([4]; 58 d): 10%
- herbicidal effect ([5]; 3 d): 2.5%
- herbicidal effect ([5]; 7 d): 7.5%
- herbicidal effect ([5]; 56 d): 16.3%
- herbicidal effect ([6]; bigger plants, flazasulfuron 50 g/ha): 0%
- herbicidal effect ([6]; young plants, flazasulfuron 25 g/ha): 7%
- herbicidal effect ([6]; young plants, flazasulfuron 50 g/ha): 8%
- herbicidal effect ([7]; flazasulfuron 25 g/ha): 0%
- herbicidal effect ([7]; flazasulfuron 50 g/ha): 2%
- herbicidal effect [8]: 0%
- herbicidal effect ([9]; flazasulfuron 25 g/ha): 89%
- herbicidal effect ([9]; flazasulfuron 50 g/ha): 92%
- herbicidal effect [10]: 1.2%
- herbicidal effect (%) ([11]; Chenopodium album/6 d): 13%
- herbicidal effect (%) ([11]; Chenopodium album/16 d): 59%
- herbicidal effect (%) ([11]; Chenopodium album/30 d): 63%
- herbicidal effect (%) ([11]; Chenopodium album/57 d): 58%
- herbicidal effect (%) ([11]; Chenopodium album/78 d): 64%
- herbicidal effect (%) ([12]; Lolium multiflorum/5 d): 0%
- herbicidal effect (%) ([12]; Lolium multiflorum/18 d): 79%
- herbicidal effect (%) ([12]; Lolium multiflorum/32 d): 87%
- herbicidal effect (%) ([12]; Lolium multiflorum/61 d): 91%
- herbicidal effect (%) ([12]; Lolium multiflorum/88 d): 89%
- herbicidal effect (%) ([13]; Poa annua/6 d): 10%
- herbicidal effect (%) ([13]; Poa annua/16 d): 53%
- herbicidal effect (%) ([13]; Poa annua/30 d): 60%
- herbicidal effect (%) ([13]; Poa annua/57 d): 58%
- herbicidal effect (%) ([13]; Poa annua/78 d): 83%
- herbicidal effect (%) ([14]; Setaria viridis/6 d): 10%
- herbicidal effect (%) ([14]; Setaria viridis/16 d): 50%
- herbicidal effect (%) ([14]; Setaria viridis/30 d): 55%
- herbicidal effect (%) ([14]; Setaria viridis/57 d): 53%
- herbicidal effect (%) ([14]; Setaria viridis/78 d): 43%
- herbicidal effect (%) ([15]; Stellaria media/5 d): 0%
- herbicidal effect (%) ([15]; Stellaria media/18 d): 79%
- herbicidal effect (%) ([16]; Trifolium repens/7 d): 20%
- herbicidal effect (%) ([16]; Trifolium repens/16 d): 40%
- herbicidal effect (%) ([16]; Trifolium repens/26 d): 63%
- herbicidal effect (%) ([16]; Trifolium repens/59 d): 68%
- herbicidal effect (%) ([17]; Veronica persicae/7 d): 20%
- herbicidal effect (%) ([17]; Veronica persicae/16 d): 4%
- herbicidal effect (%) ([17]; Veronica persicae/26 d): 20%
- herbicidal effect (%) ([17]; Veronica persicae/59 d): 0%
